# Results from ChEMBL document CHEMBL1152652, “Bioorganic synthesis of end-capped anti-HIV peptides by simultaneous cyanocysteine-mediated cleavages of recombinant proteins” (Bioorg Med Chem, 2009).
# Where a SMILES comes first, the peptide text is derived from it. The star is where a group is joined. NH(2-oxoazepan-3S-yl) = O=C1NCCCC[C@@H]1N*; Aspartimide = O=C1C[C@H](N*)C(=O)N1; X1 = N=C1N[C@H](C(=O)*)CS1
# What was measured:
# Serum = assay: Metabolic stability in 50% mouse serum assessed as degradation after 24 hrs; type: ADME, cell-free
# [1] = system: Human immunodeficiency virus 1; assay: Antiviral activity against HIV1 NL4-3 infected in human HeLa cells assessed as inhibition of replication after 48 hrs by MAGI assay; type: functional, organism-based; conditions: Human immunodeficiency virus 1, NL4-3, HeLa
# HeLa = assay: Cytotoxicity against human HeLa cells after 48 hrs up to 10 uM by MAGI assay; type: cell-based
Activity (Serum),EC50 [1] [nM],Molecule,Activity (HeLa)
Unstable,0.48,CC[C@H](C)[C@H](NC(=O)[C@H](CC(C)C)NC(=O)[C@H](CCC(=O)O)NC(=O)[C@H](CCC(=O)O)NC(=O)[C@@H](NC(=O)[C@H](CCCCN)NC(=O)[C@H](CCCCN)NC(=O)[C@@H](NC(=O)[C@H](Cc1ccc(O)cc1)NC(=O)[C@H](CCC(=O)O)NC(=O)[C@H](CCC(=O)O)NC(=O)[C@@H](NC(=O)[C@H](CCCCN)NC(=O)[C@H](CCCNC(=N)N)NC(=O)[C@H](CC(=O)O)NC(=O)[C@H](Cc1c[nH]c2ccccc12)NC(=O)[C@H](CCC(=O)O)NC(=O)[C@H](CCSC)NC(=O)[C@H](Cc1c[nH]c2ccccc12)NC(=O)[C@@H]1CSC(=N)N1)[C@@H](C)CC)[C@@H](C)O)[C@@H](C)CC)C(=O)N[C@@H](CCCCN)C(=O)N[C@@H](CCCCN)C(=O)N[C@@H](CO)C(=O)N[C@@H](CCC(N)=O)C(=O)N[C@@H](CCC(=O)O)C(=O)N[C@@H](CCC(N)=O)C(=O)N[C@@H](CCC(N)=O)C(=O)N[C@@H](CCC(=O)O)C(=O)N[C@@H](CCCCN)C(=O)N[C@@H](CC(N)=O)C(=O)N[C@@H](CCC(=O)O)C(=O)N[C@@H](CCCCN)C(=O)N[C@@H](CCC(=O)O)C(=O)N[C@@H](CC(C)C)C(=O)N[C@@H](CCCCN)C(=O)N[C@H]1CC(=O)NC1=O (X1-WMEWDRKIEEYTKKIEELIKKSQEQQEKNEKELK-Aspartimide),Non-toxic
Stable,0.58,CC[C@H](C)[C@H](NC(=O)[C@H](CC(C)C)NC(=O)[C@H](CCC(=O)O)NC(=O)[C@H](CCC(=O)O)NC(=O)[C@@H](NC(=O)[C@H](CCCCN)NC(=O)[C@H](CCCCN)NC(=O)[C@@H](NC(=O)[C@H](Cc1ccc(O)cc1)NC(=O)[C@H](CCC(=O)O)NC(=O)[C@H](CCC(=O)O)NC(=O)[C@@H](NC(=O)[C@H](CCCCN)NC(=O)[C@H](CCCNC(=N)N)NC(=O)[C@H](CC(=O)O)NC(=O)[C@H](Cc1c[nH]c2ccccc12)NC(=O)[C@H](CCC(=O)O)NC(=O)[C@H](CCSC)NC(=O)[C@H](Cc1c[nH]c2ccccc12)NC(=O)[C@@H]1CSC(=N)N1)[C@@H](C)CC)[C@@H](C)O)[C@@H](C)CC)C(=O)N[C@@H](CCCCN)C(=O)N[C@@H](CCCCN)C(=O)N[C@@H](CO)C(=O)N[C@@H](CCC(N)=O)C(=O)N[C@@H](CCC(=O)O)C(=O)N[C@@H](CCC(N)=O)C(=O)N[C@@H](CCC(N)=O)C(=O)N[C@@H](CCC(=O)O)C(=O)N[C@@H](CCCCN)C(=O)N[C@@H](CC(N)=O)C(=O)N[C@@H](CCC(=O)O)C(=O)N[C@@H](CCCCN)C(=O)N[C@@H](CCC(=O)O)C(=O)N[C@@H](CC(C)C)C(=O)N[C@@H](CCCCN)C(=O)N[C@H]1CCCCNC1=O (X1-WMEWDRKIEEYTKKIEELIKKSQEQQEKNEKELK-{NH(2-oxoazepan-3S-yl)}),Non-toxic
,0.68,H-WMEWDRKIEEYTKKIEELIKKSQEQQEKNEKELK-OH,

Molecule,Activity (Serum),EC50 [1] [nM],Activity (HeLa)
Ac-WMEWDRKIEEYTKKIEELIKKSQEQQEKNEKELK-NH2,,0.6,
